Experimental findings from patent US9120787B2, “HIV replication inhibitors” (priority 2011, dated 2015) are described below.

Data set [1] is described as follows: Cytotoxicity by MTS staining in uninfected MAGI-CCR5 cells. Format: cell-based. The note with it: human, read-out: TC50. As to the method:
The anti-viral activity of dihydropyrimidines was shown by inhibition of virus replication in MAGI-CCR5 cells. MAGI-CCR5 cells are derived from HeLa-CD4-LTR-β-galactosidase cells. The cells have been engineered to express high levels of CD4 and CCR5 and contain one copy of the HIV-1 LTR promoter driving expression of the β-galactosidase gene upon HIV-1 Tat transactivation. On the day preceding the assay, the cells were plated at 1.0×10^4 cells per well and maintained at 37° C. and 5% CO2 in a humidified incubator. Total cell count and viability was visually assessed using a hemacytometer and trypan blue exclusion. Compounds were evaluated at six concentrations (triplicate wells/concentration). On the day of assay setup, compound dilutions were prepared at two-times (2×) the final concentrations. Media was decanted and wells were replenished with 50 μl of 2× compounds, followed by the addition of 50 μl of diluted virus. Identical uninfected assays were prepared for parallel cytotoxicity testing.

In data set [2] the test system is HIV-1Ba-L. In words: Inhibition of virus replication in MAGI-CCR5 cells (β-galactosidase reporter). The class given is cell-based. The note with it: HIV-1Ba-L in MAGI-CCR5 cells; for IC50: Human immunodeficiency virus 1, 48 hours, β-galactosidase reporter expression, read-out: IC50. Here is the method:
The anti-viral activity of dihydropyrimidines was shown by inhibition of virus replication in MAGI-CCR5 cells. MAGI-CCR5 cells are derived from HeLa-CD4-LTR-β-galactosidase cells. The cells have been engineered to express high levels of CD4 and CCR5 and contain one copy of the HIV-1 LTR promoter driving expression of the β-galactosidase gene upon HIV-1 Tat transactivation. On the day preceding the assay, the cells were plated at 1.0×10^4 cells per well and maintained at 37° C. and 5% CO2 in a humidified incubator. Total cell count and viability was visually assessed using a hemacytometer and trypan blue exclusion.
Compounds were evaluated at six concentrations (triplicate wells/concentration). On the day of assay setup, compound dilutions were prepared at two-times (2×) the final concentrations. Media was decanted and wells were replenished with 50 μl of 2× compounds, followed by the addition of 50 μl of diluted virus. Identical uninfected assays were prepared for parallel cytotoxicity testing.
Evaluation of Dihydropyrimidines vs. HIV-1Ba-L in MAGI-CCR5 Cells

Data set [3] can be described thus: Cytotoxicity by MTS staining in PBMCs. Format: cell-based. Conditions: human, peripheral blood mononuclear cells (PBMC), MTS staining, read-out: TC50. As to the method: Cytotoxicity was assessed by MTS staining. At assay end-point, PBMC were stained with the addition of […] of the soluble tetrazolium-based dye MTS to determine cell viability and quantify compound toxicity. The plates were incubated 4 to 6 hrs at 37° C. Following incubation, the activity was assessed by reading absorbance values at 490/650 nm.

For data set [4], the system named is HIV-1Ba-L. In words: HIV-1Ba-L replication in PBMCs (supernatant RT end-point). Here is the method: Evaluation of Dihydropyrimidines vs. HIV-1Ba-L in Peripheral Blood Mononuclear Cells (PBMCs)
Cultures of pooled phytohemagglutinin stimulated peripheral blood mononuclear cells (PBMC) were seeded into a 96-well plate at plating density of 5×10^4 cells/well. Compounds were serially diluted into media in ½-log increments using a high test of […] and […] of each concentration (nine total concentrations). Cells were infected with HIV strains HIV-1Ba-L and NL4-3 at an MOI=0.1. The PBMCs were cultured for seven days in an humidified incubator maintained at 37° C., 5% CO2 atmosphere. At the assay end-point, the supernatant was collected and analyzed for reverse transcriptase activity. For the RT assay, tritiated thymidine triphosphate (3H-TTP, 80 Ci/mmol) was diluted 1:1 dH2O:Ethanol at 1 mCi/ml. Poly rA:oligo dT template:primer was prepared as a stock solution by combining 150 μl poly rA (20 mg/ml) with 0.5 mL oligo dT (20 units/ml) and 5.35 ml sterile dH2O followed by aliquoting (1.0 ml) and storage at −20° C. The RT reaction buffer contained of 125 ml 1.0 M EGTA, 125 ml dH2O, 125 ml 20% Triton X100, 50 ml 1.0 M Tris (pH 7.4), 50 ml 1.0 M DTT, and 40 ml 1.0 M MgCl2. The final reaction mixture was prepared by combining 1 part 3H-TTP, 4 parts dH2O, 2.5 parts poly rA:oligo dT stock and 2.5 parts reaction buffer. To each well, ten microliters of the reaction mixture and 15 μl of virus containing supernatant were added. The plates were incubated at 37° C. for 60 minutes. Following incubation, the reaction volume was spotted onto DE81 filter-mats, washed 5 times for 5 minutes each in a 5% sodium phosphate buffer or 2×SSC. […] were washed 2 times for 1 minute each in distilled water, 2 times for 1 minute each in 70% ethanol, and then dried. Incorporated radioactivity (counts per minute, CPM) was quantified using standard liquid scintillation techniques.

The term IC50 denotes the concentration at which inhibition is half-maximal.

Bounds are passed on as bounds.

With `CC1=C(c2nc(-c3ccc(C)cc3)cs2)C(c2cccc(O)c2)NC(=O)N1` (stereo not drawn) [Example 73], in data set [1], the CC50 at 48 h lay within 50 to 100 µM. In the data set with HIV-1Ba-L [2], the “TI (TC50/IC50)” value is on record as “D (D < 10.0)” and the IC50 fell in the range of 5 to 100 µM.

Take `CC1=C(c2nc(-c3ccc(C(F)(F)F)cc3)cs2)C(c2cccc(O)c2)NC(=O)N1` (stereo not drawn) [Example 75]: the CC50 at 48 h in data set [1] is below 50 µM. In addition, in the data set on HIV-1Ba-L [2], the “TI (TC50/IC50)” value was “D (D < 10.0)” and the IC50 was 5 to 100 µM.

For `CC1=C(c2nc(-c3ccc([N+](=O)[O-])cc3)cs2)C(c2cccc(O)c2)NC(=O)N1` (stereo not drawn) [Example 76], in data set [1], the CC50 at 48 h is at least 100 µM. Further, in the data set with HIV-1Ba-L [2], the “TI (TC50/IC50)” value is reported as “A (A = TI (TC50/IC50) ≧ 100.0)” and the IC50 was below 1 µM.

For the molecule `CC1=C(c2nc(-c3ccc(C#N)cc3)cs2)C(c2cc(C(F)(F)F)cc(C(F)(F)F)c2)NC(=O)N1` (stereo not drawn) [Example 77], in data set [1], the CC50 at 48 h is at least 100 µM. Moreover, in the data set on HIV-1Ba-L [2], the “TI (TC50/IC50)” value was “D (D < 10.0)” and the 50% inhibitory concentration (IC50) was above 100 µM.

Consider `CC1=C(c2nc(-c3ccc(C#N)cc3)cs2)C(c2cc(O)ccc2O)NC(=O)N1` (stereo not drawn) [Example 78], for which the CC50 at 48 h in data set [1] was at least 100 µM. Besides, in the data set with HIV-1Ba-L [2], the “TI (TC50/IC50)” value is on record as “D (D < 10.0)” and the IC50 is 5 to 100 µM.

For `CC1=C(c2nc(-c3ccc(C#N)cc3)cs2)C(c2ccc(O)c(O)c2)NC(=O)N1` (stereo not drawn) [Example 79], the CC50 at 48 h in data set [1] is at least 100 µM. Also, in the data set with HIV-1Ba-L [2], the “TI (TC50/IC50)” value is listed as “A (A = TI (TC50/IC50) ≧ 100.0)” and the half-maximal inhibitory concentration (IC50) is below 1 µM.

In the case of `CC1=C(c2nc(-c3ccc(C#N)cc3C)cs2)C(c2cccnc2F)NC(=O)N1` (stereo not drawn) [Example 82], the CC50 at 48 h in data set [1] was in the range of 50 to 100 µM. In the data set with HIV-1Ba-L [2], the “TI (TC50/IC50)” value was “A (A = TI (TC50/IC50) ≧ 100.0)” and the IC50 is below 1 µM.

Turning to `CC1=C(c2nc(-c3ccc(C#N)cc3C)cs2)C(c2ccc(Br)nc2)NC(=O)N1` (stereo not drawn) [Example 84], in data set [1], the CC50 at 48 h is below 50 µM. In addition, in the data set on HIV-1Ba-L [2], the “TI (TC50/IC50)” value is given as “B (B < 100.0-50.0)” and the IC50 is below 1 µM.

On to `COc1ccc(C2NC(=O)NC(C)=C2c2nc(-c3ccc(C#N)cc3C)cs2)cn1` (stereo not drawn) [Example 85], for which the CC50 at 48 h in data set [1] is below 50 µM. For the same molecule, in the data set with HIV-1Ba-L [2], the “TI (TC50/IC50)” value is on record as “B (B < 100.0-50.0)” and the IC50 is below 1 µM.

For `CC1=C(c2nc(-c3ccc(C#N)cc3)cs2)C(Cc2ccccc2)NC(=O)N1` (stereo not drawn) [Example 88], in data set [1], the CC50 at 48 h was at least 100 µM. Also, in the data set with HIV-1Ba-L [2], the “TI (TC50/IC50)” value is on record as “C (C < 50.0 to 10.0)” and the IC50 fell in the range of 1 to 5 µM.

For `CC1=C(c2nc(-c3ccc(C#N)cc3)cs2)C(Cc2ccc(C)cc2)NC(=O)N1` (stereo not drawn) [Example 94], the CC50 at 48 h in data set [1] lay within 50 to 100 µM. Further, in the data set on HIV-1Ba-L [2], the “TI (TC50/IC50)” value is recorded as “C (C < 50.0 to 10.0)” and the 50% inhibitory concentration (IC50) lay in the range of 1 to 5 µM.

On to `CC1=C(c2nc(-c3ccc(F)cc3)cs2)C(Cc2ccc(C)cc2)NC(=O)N1` (stereo not drawn) [Example 95], for which, in data set [1], the CC50 at 48 h is at least 100 µM. For the same molecule, in the data set on HIV-1Ba-L [2], the “TI (TC50/IC50)” value is given as “D (D < 10.0)” and the IC50 was above 100 µM.

With `CC(C)(C)NC(=O)[C@@H]1CN(Cc2cccnc2)CCN1C[C@@H](O)C[C@@H](Cc1ccccc1)C(=O)N[C@H]1c2ccccc2C[C@H]1O` [Indinavir, reference compound], in data set [3], the CC50 at 7 days is above 1 µM. In the data set with HIV-1Ba-L [4] (HIV-1Ba-L in PBMCs), the “TI (TC50/IC50)” value is listed as above 21.0. Also, the IC50 in the data set with HIV-1Ba-L [4] (Human immunodeficiency virus 1, PBMC, 168 h) is 0.048 µM.
